The values below are quoted from earlier work in patent EP4659596A1 (Nicoventures Trading Limited, priority 2024, dated 2025).

The conditions of this data set: partition coefficient between octanol and water; organic acids of Table 1.
Turning to `CC(C)[C@@H]1CC[C@@H](C)C[C@H]1OC(=O)CCC(=O)O` [monomenthyl succinate], the logP – broadly, a log measure of how a compound divides between an organic and an aqueous phase – was 3.

As to isopropyl benzoic acid, the logP is listed as 3.5. Regarding ethyl benzoic acid, the lipophilicity (logP) is listed as 2.9.
